In patent US20240216249A1, “COLLAGEN ACTIVATOR, AND PREPARATION METHOD AND APPLICATION THEREOF” (Hangzhou NUPTEC Rising Bioproducts Incorporation, Ltd., priority 2022, published 2024):

Key:
collagen I = test: cell experiments, expression of collagen I; assay type: cell-based
collagen III = test: cell experiments, expression of collagen III; assay type: cell-based
collagen XVII = test: cell experiments, expression of collagen XVII; assay type: cell-based
[1] = test system: blood vessels of embryonated eggs; test: safety test on blood vessels of embryonated eggs; conditions: positive comparative group, 0.05 M SDS, 5 eggs

| SMILES | content having a promoting effect on the expression of collagen I (collagen I) | optimal content (highest expression) for collagen I (collagen I) [%] | content having a promoting effect on the expression of collagen III (collagen III) | optimal content (highest expression) for collagen III (collagen III) [%] | content having a promoting effect on the expression of collagen XVII (collagen XVII) | optimal content (highest expression) for collagen XVII (collagen XVII) [%] | irritation judgement [1] | bleeding of blood vessels of embryonated eggs ([1]; 30 min) |
| --- | --- | --- | --- | --- | --- | --- | --- | --- |
| CC1(C)[C@@H](O[C@H]2O[C@H](C(=O)[O-])[C@@H](O)[C@H](O)[C@H]2O[C@@H]2O[C@H](C(=O)[O-])[C@@H](O)[C@H](O)[C@H]2O)CC[C@]2(C)[C@H]3C(=O)C=C4[C@@H]5C[C@@](C)(C(=O)O)CC[C@]5(C)CC[C@@]4(C)[C@]3(C)CC[C@@H]12.[K+].[K+] [dipotassium glycyrrhizinate] | 0.001%-0.1 | 0.01 | 0.001%-0.25 | 0.1 | 0.001%-0.01 | 0.01 |  |  |
| CCCCCCCCCCCCOS(=O)(=O)[O-].[Na+] [SDS, sodium dodecyl sulfate] |  |  |  |  |  |  | non-irritants | appear the bleeding phenomenon |
